Measured values taken from the CheMixHub ionic liquid set.

Test: xn = mol fraction of the nth substance listed

O=S(=O)([N-]S(=O)(=O)C(F)(F)F)C(F)(F)F.[Li+] + C1COCO1
298.15 K, 100 kPa
Conditions	electrical conductivity [S/m]	viscosity [mPa·s]
x1 = 8e-07	1.3e-05	–
x1 = 3.74e-06	3.1e-05	–
x1 = 8.82e-06	5e-05	0.58
x1 = 1.615e-05	6.8e-05	0.582
x1 = 2.378e-05	8.1e-05	0.583
x1 = 3.941e-05	0.000103	0.584
x1 = 8.444e-05	0.000138	0.585
x1 = 0.0001607	0.0002	0.588
x1 = 0.0004162	0.000398	0.589
x1 = 0.0007624	0.000536	0.591
x1 = 0.001538	0.000978	0.595
x1 = 0.002969	0.00173	0.608
x1 = 0.004513	0.00309	0.629
x1 = 0.005877	0.00459	0.633
x1 = 0.007354	0.00664	0.637
x1 = 0.01099	0.0164	0.661
x1 = 0.0146	0.0294	0.683
x1 = 0.02174	0.0659	0.758
x1 = 0.03572	0.169	0.905
x1 = 0.06897	0.446	1.388
x1 = 0.08475	0.563	1.684
x1 = 0.1	0.643	2.11
x1 = 0.1285	0.738	3.122
x1 = 0.1563	0.744	4.4
x1 = 0.1818	0.69	6.52
x1 = 0.2054	0.606	9.99
x1 = 0.2273	0.512	13.96
x1 = 0.2467	0.431	20.04
x1 = 0.2703	0.337	30.3

CCCCn1cc[n+](C)c1C.O=S(=O)([N-]S(=O)(=O)C(F)(F)F)C(F)(F)F + CC1COC(=O)O1
101.3 kPa
Conditions	viscosity [mPa·s]
288.15 K, x1 = 0.6989	76.5
293.15 K, x1 = 0.0902	4.602
293.15 K, x1 = 0.6034	43.21
298.15 K, x1 = 0.4039	16.99
303.15 K, x1 = 0.193	5.92
303.15 K, x1 = 0.4996	20.52
303.15 K, x1 = 0.8107	50
303.15 K, x1 = 1	78.6
308.15 K, x1 = 0.193	5.23
308.15 K, x1 = 0.8107	40.47
313.15 K, x1 = 0.0902	2.96
313.15 K, x1 = 0.4039	10.52
313.15 K, x1 = 1	50.1
318.15 K, x1 = 0.193	4.177
318.15 K, x1 = 0.2934	6.16
318.15 K, x1 = 0.4996	13.02
318.15 K, x1 = 0.8107	27.72
318.15 K, x1 = 1	41.04
328.15 K, x1 = 0.0902	2.263
333.15 K, x1 = 0.8107	17.54
333.15 K, x1 = 1	24.25
338.15 K, x1 = 0.2934	4.026
338.15 K, x1 = 0.4996	7.4
343.15 K, x1 = 0.4996	6.47
343.15 K, x1 = 0.6034	8.56

CCCC[N+]1(C)CCCC1.O=S(=O)([O-])C(F)(F)F + CC#N
viscosity [mPa·s], 101 kPa
Conditions	288.15 K	293.15 K	298.15 K
x1 = 0.0008322	0.377	0.358	0.34
x1 = 0.001153	0.379	0.359	0.342
x1 = 0.001607	0.381	0.361	0.345
x1 = 0.002041	0.383	0.364	0.347
x1 = 0.002439	0.386	0.366	0.349
x1 = 0.002832	0.388	0.368	0.351
x1 = 0.003272	0.39	0.369	0.353
x1 = 0.003684	0.392	0.372	0.355
x1 = 0.004131	0.394	0.374	0.357
x1 = 0.00964	0.423	0.404	0.386
x1 = 0.01639	0.458	0.437	0.417
x2 = 0.9756	0.498	0.473	0.45

O=S(=O)([N-]S(=O)(=O)C(F)(F)F)C(F)(F)F.[Li+] + CC#N
100 kPa
Conditions	electrical conductivity [S/m]	viscosity [mPa·s]
293 K, x1 = 0.25	–	17.9
303.15 K, x1 = 0.02067	2.79	–
303.15 K, x1 = 0.03069	3.23	–
308.15 K, x1 = 0.03069	3.34	–
308.15 K, x1 = 0.04052	3.85	–
308.15 K, x1 = 0.05013	4.25	–
308.15 K, x1 = 0.07787	4.14	–
313.15 K, x1 = 0.02067	3.03	–
313.15 K, x1 = 0.07787	4.35	–
318.15 K, x1 = 0.04052	4.16	–
318.15 K, x1 = 0.05013	4.64	–
323.15 K, x1 = 0.05957	4.97	–
328.15 K, x1 = 0.05013	4.99	–
328.15 K, x1 = 0.05957	5.14	–
333.15 K, x1 = 0.05957	5.28	–
